Measurements: ChEMBL document CHEMBL1201862, “PubChem BioAssay data set” (2004)
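1) Cells in 96-well plates. 2) Compound, 48 h, 5 concentrations. 3) Linear interpolation between surrounding doses. 4) Unreached endpoint = highest concentration. GI50 marks 50% less growth.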 The source made the active and inactive calls. Rule as the data show it: active = GI50 up to about 1.1 µM and inactive = higher.

Legend:
Test in all cases: NCI anticancer screen, dose series, 48 h
NCI-H522 = system: NCI-H522
MDA-MB-231 = system: MDA-MB-231
MOLT-4 = system: MOLT-4
786-0 = system: 786-0
T47D = system: T47D
IGROV-1 = system: IGROV-1
KM12 = system: KM12
MDA-N = system: MDA-N
HT-29 = system: HT-29
COLO 205 = system: COLO 205
TK-10 = system: TK-10
SF-268 = system: SF-268
SN12C = system: SN12C
Malme-3M = system: Malme-3M
SF-295 = system: SF-295
UACC-257 = system: UACC-257
SK-MEL-2 = system: SK-MEL-2
UACC-62 = system: UACC-62
A498 = system: A498
HCC 2998 = system: HCC 2998
RXF 393 = system: RXF 393
HOP-92 = system: HOP-92
NCI-H23 = system: NCI-H23
BT-549 = system: BT-549
NCI-H460 = system: NCI-H460
K562 = system: K562
HCT-116 = system: HCT-116
PC-3 = system: PC-3
OVCAR-5 = system: OVCAR-5
MCF7 = system: MCF7
NCI-H226 = system: NCI-H226
NCI/ADR-RES = system: NCI/ADR-RES
ACHN = system: ACHN
U-251 = system: U-251
CCRF-CEM = system: CCRF-CEM
OVCAR-3 = system: OVCAR-3
MDA-MB-435 = system: MDA-MB-435
SNB-75 = system: SNB-75
OVCAR-8 = system: OVCAR-8
SW-620 = system: SW-620
HCT-15 = system: HCT-15
M14 = system: M14
CAKI-1 = system: CAKI-1
OVCAR-4 = system: OVCAR-4
SK-MEL-5 = system: SK-MEL-5
A549 = system: A549
HL-60 = system: HL-60
SF-539 = system: SF-539
UO-31 = system: UO-31
RPMI-8226 = system: RPMI-8226
SR = system: SR
SK-MEL-28 = system: SK-MEL-28
SNB-19 = system: SNB-19
DU-145 = system: DU-145

For `NC(Cc1ccc(O)c(O)c1)P(=O)(O)O` (centres undefined), the GI50 (NCI-H522) was 4.75 µM (inactive), the GI50 (MDA-MB-231) was > 100 µM (inactive) and the GI50 (MOLT-4) was > 100 µM (inactive). The GI50 (786-0) was > 100 µM (inactive), the GI50 (T47D) was 18 µM (inactive) and the GI50 (IGROV-1) was > 100 µM (inactive). The GI50 (KM12) was > 100 µM (inactive), the GI50 (MDA-N) was > 100 µM (inactive) and the GI50 (HT-29) was > 100 µM (inactive). For the same compound, the GI50 (COLO 205) was > 10 µM (inactive), the GI50 (TK-10) was > 100 µM (inactive) and the GI50 (SF-268) was > 100 µM (inactive). For the same compound, the GI50 (SN12C) was > 100 µM (inactive), the GI50 (Malme-3M) was 81.5 µM (inactive) and the GI50 (SF-295) was > 100 µM (inactive). The GI50 (UACC-257) was > 100 µM (inactive), the GI50 (SK-MEL-2) was > 100 µM (inactive) and the GI50 (UACC-62) was > 100 µM (inactive). For the same compound, the GI50 (A498) was > 100 µM (inactive), the GI50 (HCC 2998) was > 100 µM (inactive) and the GI50 (RXF 393) was > 100 µM (inactive). For the same compound, the GI50 (HOP-92) was > 100 µM (inactive), the GI50 (NCI-H23) was > 100 µM (inactive) and the GI50 (BT-549) was > 100 µM (inactive). For the same compound, the GI50 (NCI-H460) was > 100 µM (inactive), the GI50 (K562) was 19.6 µM (inactive) and the GI50 (HCT-116) was > 100 µM (inactive). For the same compound, the GI50 (PC-3) was > 100 µM (inactive), the GI50 (OVCAR-5) was > 100 µM (inactive) and the GI50 (MCF7) was > 10 µM (inactive). For the same compound, the GI50 (NCI-H226) was > 100 µM (inactive), the GI50 (NCI/ADR-RES) was > 100 µM (inactive) and the GI50 (ACHN) was > 100 µM (inactive). The GI50 (U-251) was > 100 µM (inactive), the GI50 (CCRF-CEM) was 21.6 µM (inactive) and the GI50 (OVCAR-3) was > 100 µM (inactive). For the same compound, the GI50 (MDA-MB-435) was > 100 µM (inactive), the GI50 (SNB-75) was > 100 µM (inactive) and the GI50 (OVCAR-8) was > 100 µM (inactive). The GI50 (SW-620) was 20.1 µM (inactive), the GI50 (HCT-15) was greater than 100 µM and the GI50 (M14) was > 100 µM (inactive). The GI50 (CAKI-1) was > 100 µM (inactive), the GI50 (OVCAR-4) was > 100 µM (inactive) and the GI50 (SK-MEL-5) was > 100 µM (inactive). For the same compound, the GI50 (A549) was > 100 µM (inactive), the GI50 (HL-60) was 16.2 µM (inactive) and the GI50 (SF-539) was > 100 µM (inactive). The GI50 (UO-31) was > 100 µM (inactive), the GI50 (RPMI-8226) was 92.7 µM (inactive) and the GI50 (SR) was 91.8 µM (inactive). The GI50 (SK-MEL-28) was > 100 µM (inactive), the GI50 (SNB-19) was > 100 µM (inactive) and the GI50 (DU-145) was > 100 µM (inactive).
